pEC50, pKd: −log10 of the molar value.
Columns and labels:
IITAT = molecular target: T1, IITAT (Homo sapiens, UniProt P00734, E366T/I364T/V365A); assay: Rescue of IITAT cleavage at Arg-271 by DAPA (areas under mIIa progress curves); assay type: biochemical; details: DAPA 0-300 μM; 5.4 μM IITAT, 0.8 nM prothrombinase; read-out: DAPA concentration for half-maximal effect on rescue of second half-reaction in IITAT cleavage
T1 construct: made in house
Description: Reaction mixtures prepared in assay buffer and maintained at 25° C., contained 5.4 μM IIWT, IITAT, or IIQ155,Q284, 20 μM PCPS, 28 nM Va, and indicated concentrations of DAPA. Cleavage was initiated by the addition of 0.8 nM Xa and samples (15 μl), withdrawn at the indicated times, were quenched by mixing with an equal volume of 2 NuPAGE LDS sample buffer (Invitrogen) containing 50 mM EDTA. Quenched samples were treated with 71 mM DTT, heated at 89° C. for 5 min, and subjected to electrophoresis (4.2 μg protein per lane) by using NuPAGE 4-12% gels and Mes running buffer (Invitrogen). Protein bands visualized by staining with Coomassie brilliant blue R-250 were imaged and analyzed by quantitative densitometry by using procedures described in detail in refs. 4 and 15. Analysis of the cleavage of FPR-IIQ320 and NaSCN-treated IIQ320 was performed as described above except that reaction mixtures contained 5.8 μM prothrombin variant, 50 μM PCPS, 60 nM Va, 40 μM DAPA, and 1 nM Xa.
Effects of DAPA were assessed by integrating areas under the progress curves for mIIa formation and its disappearance for the different prothrombin variants (FIG. 5). Normalized areas obtained in the activation of IIWT or IIQ155,Q284 were identical and were independent of DAPA varied between 0 and 300 μM for IIQ155,Q284 or 20 and 300 μM for IIWT. […]

mIIa = details: read-out: Kd of DAPA for mIIa; cited from earlier work
IIaWT = molecular target: T2, IIaWT (Homo sapiens, UniProt P00734); assay: Binding of DAPA to thrombin variants (fluorescence); details: fluorescence studies, data not shown
T2 construct: yielding mIIa as the sole intermediate, followed by cleavage at Arg-271 to produce IIa
Description: Front face fluorescence measurements were performed in a plate reader (SpectraMax Gemini, Molecular Devices) by using black polystyrene plates (no. 3650, Corning). Reaction mixtures (100 μl) prepared in assay buffer contained increasing concentrations of DAPA (24 concentrations, 0-100 μM) with no addition, 0.5 μM IIa, or 0.5 μM IIaTAT. […] Subtraction of the intensity measured with DAPA alone yielded the fluorescence change associated with the binding of DAPA to Ha or IIaTAT. Fluorescence data were analyzed as described in ref 7 to infer the equilibrium dissociation constant.

IIa = details: read-out: Kd of DAPA for IIa; cited from earlier work
mIIaTAT = molecular target: T3, mIIaTAT (Homo sapiens, UniProt P00734, E366T/I364T/V365A); assay: DAPA binding to zymogen-like mIIaTAT (interpretation of rescue data); details: possible interpretation of rescue findings
T3 construct: made in house; host or cells: IITAT from HEK293 cells, cleaved in the reaction by prothrombinase
Text: Ligands that bind with high affinity to the proteinase are established to enhance the ability of the zymogen to adopt a proteinase-like configuration (13, 20, 23). Our findings are consistent with two possible interpretations. […] Alternatively, DAPA could act by selectively binding and favoring the proteinase in an equilibrium between zymogen-like and proteinase-like forms of mIIaTAT in which the zymogen-like state is highly favored.

pEC50 (IITAT): ~4.70
equilibrium dissociation constant of DAPA for IIaWT (IIaWT): nanomolar
pKd (mIIaTAT): 4.52
SMILES: CCC1CCN(C(=O)C(CCCNC(=N)N)NS(=O)(=O)c2cccc3c(N(C)C)cccc23)CC1 [DAPA, dansyl-L-arginine N-(3-ethyl-1,5-pentanediyl)amide]
pKd (mIIa): ~9.00
pKd (IIa): ~9.00

Reference: patent publication US8999322B2, “Compositions and methods for modulating hemostasis” (The United States of America National Institutes of Health …, priority 2005, dated 2015)
